Molecular target: T1, BumS (WT BumS-Myc-6XHis) (Campylobacter jejuni, UniProt Z9AJU0DEG1)
T1 construct: gene CJJ81176_1484; second to penultimate codon, C-terminal Myc-6XHis tag kept (pBAD/Myc-HisA, pNR251), expressed in E. coli TOP10; cytoplasmic, N-terminal PAS domain (about residues 1-120)
T1 sequence (Z9AJU0DEG1 2-403): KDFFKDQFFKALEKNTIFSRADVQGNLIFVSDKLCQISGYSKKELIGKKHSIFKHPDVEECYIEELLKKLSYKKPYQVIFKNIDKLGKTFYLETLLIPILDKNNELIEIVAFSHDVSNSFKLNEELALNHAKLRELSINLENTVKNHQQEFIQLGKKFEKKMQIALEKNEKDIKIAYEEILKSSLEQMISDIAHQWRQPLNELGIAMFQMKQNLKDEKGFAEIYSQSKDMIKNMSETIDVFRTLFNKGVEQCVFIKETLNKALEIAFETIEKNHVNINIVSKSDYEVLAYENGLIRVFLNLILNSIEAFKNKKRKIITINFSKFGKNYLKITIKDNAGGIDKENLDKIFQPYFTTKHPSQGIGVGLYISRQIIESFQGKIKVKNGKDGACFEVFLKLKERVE
Test: CD thermal melt at […] nm
Type: binding
Conditions: […]; […] HEPES, […] NaSO4, […] glycerol; […]-95 °C

## CC(C)C(=O)O [isobutyrate]
  Tm,app: isobutyrate and isovalerate had a net destabilizing effect on the thermostability of BumS
